Results from patent US7312228B2, “Cytotoxic indeno and isoindoloisoquinolones” (Purdue Research Foundation, priority 2003, dated 2007).
Several values for one entry are separate records, joined by “and”; a condition that tells them apart may be missing. Equal values may be shown once. Read-outs that look alike come from different tables or passages of the source.

How the values were obtained:
[1] = test system: human cancer cell lines; test: NCI screen mean graph midpoint over approximately 55 cancer cell lines; type: cell-based; conditions: for GI50: read-out: MGM (mean graph midpoint for growth inhibition); for cytotoxicity compared with other compounds: human cancer cell cultures
Protocol: Selected indenoisoquinolones described herein were examined for antiproliferative activity against the human cancer cell lines in the National Cancer Institute screen, in which the activity of each compound was evaluated with approximately 55 different cancer cell lines of diverse tumor origins. […] The relative activities of selected indenoisoquinolines described herein were obtained from the top 1-mediated DNA cleavage assay, and are also shown in Table 1. Compounds 2 and 7 are also included the Table 1.

[2] = biological target: T1, Human recombinant top1 (Homo sapiens, UniProt P11387); test: Top1-mediated DNA cleavage reactions; type: biochemical; set-up: key to Top 1 Cleavage: weak activity (+); activity similar to compound 2 (++); activity greater than compound 2 (+++); conditions: for Top 1 Cleavage: tested at concentrations ranging up to 10 μM, relative to compound 2
T1 construct: made in house
T1 sequence (P11387 1-765): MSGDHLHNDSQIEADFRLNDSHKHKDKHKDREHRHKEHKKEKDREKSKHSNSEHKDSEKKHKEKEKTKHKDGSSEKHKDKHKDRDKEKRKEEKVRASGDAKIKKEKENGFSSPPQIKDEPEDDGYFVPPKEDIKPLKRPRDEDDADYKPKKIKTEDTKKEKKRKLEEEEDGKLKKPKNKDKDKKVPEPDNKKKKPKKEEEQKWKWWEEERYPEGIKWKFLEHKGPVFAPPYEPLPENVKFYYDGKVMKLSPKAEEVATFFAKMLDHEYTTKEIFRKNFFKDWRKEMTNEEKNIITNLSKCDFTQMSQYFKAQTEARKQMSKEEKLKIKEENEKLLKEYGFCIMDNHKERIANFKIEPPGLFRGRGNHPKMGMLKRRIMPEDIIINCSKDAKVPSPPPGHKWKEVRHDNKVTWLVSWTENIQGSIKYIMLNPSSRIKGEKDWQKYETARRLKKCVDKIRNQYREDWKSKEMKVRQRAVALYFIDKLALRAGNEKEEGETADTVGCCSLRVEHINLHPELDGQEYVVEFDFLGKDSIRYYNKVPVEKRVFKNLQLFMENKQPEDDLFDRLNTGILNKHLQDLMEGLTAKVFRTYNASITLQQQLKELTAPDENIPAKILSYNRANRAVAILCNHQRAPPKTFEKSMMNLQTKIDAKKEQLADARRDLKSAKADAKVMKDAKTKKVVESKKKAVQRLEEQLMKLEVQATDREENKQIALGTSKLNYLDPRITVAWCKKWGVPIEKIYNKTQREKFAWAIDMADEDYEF
Protocol: Human recombinant top1 was purified from Baculovirus as described by Pourquier et al. in J. Biol. Chem. 274:8516-23 (1999), the disclosure of which is incorporated herein by reference. The 161 bp fragment from pBluescript SK(−) phagemid DNA (Stratagene, La Jolla, Calif.) was cleaved with the restriction endonuclease Pvu II and Hind III (New England Biolabs, Beverly, Mass.) in supplied NE buffer 2 (10 μL reactions) for 1 h at 37° C., and separated by electrophoresis in a 1% agarose gel made in 1×TBE buffer. The 161 bp fragment was eluted from the gel slice (centrilutor by Amicon) and concentrated in a centricon 50 centrifugal concentrator (Amicon, Beverly, Mass.). Approximately 200 ng of the fragment was 3′-end labeled at the Hind III site by fill-in reaction with [alpha-^32P]-dGTP and 0.5 mM dATP, dCTP, and dTTP, in React 2 buffer (50 mM Tris-HCl, pH 8.0, […], 50 mM NaCl) with 0.5 units of DNA polymerase I (Klenow fragment). Unincorporated ^32P-dGTP was removed using mini Quick Spin DNA columns (Roche, Indianapolis, Ind.), and the eluate containing the 3′-end-labeled 161 bp fragment was collected. Aliquots (approximately 50,000 dpm/reaction) were incubated with top1 at 22° C. for 30 min in the presence of the tested drug. Reactions were terminated by adding SDS (0.5% final concentration). The samples (10 μL) were mixed with 30 μL of loading buffer (80% formamide, 10 mM sodium hydroxide, 1 mM sodium EDTA, 0.1% xylene cyanol, and 0.1% bromophenol blue, pH 8.0). Aliquots were separated in denaturing gels (16% polyacrylamide, 7 M urea). Gels were dried and visualized by using a Phosphoimager and ImageQuant software (Molecular Dynamics, Sunnyvale, Calif.).

[3] = test system: MDA-MB-435; test: NCI screen antiproliferative activity, breast MDA-MB-435; type: cell-based, human; conditions: concentration corresponding to 50% growth inhibition, read-out: cytotoxicity (GI50) breast MDA-MB-435
Protocol: (§1) Selected indenoisoquinolones described herein were examined for antiproliferative activity against the human cancer cell lines in the National Cancer Institute screen, in which the activity of each compound was evaluated with approximately 55 different cancer cell lines of diverse tumor origins.

[4] = test system: OVCAR-3; test: NCI screen antiproliferative activity, ovarian OVCAR-3; type: cell-based; conditions: Homo sapiens, concentration corresponding to 50% growth inhibition, read-out: cytotoxicity (GI50) ovarian OVCAR-3
Protocol: as §1

[5] = test system: UACC-62; test: NCI screen antiproliferative activity, melanoma UACC-62; type: cell-based; conditions: Homo sapiens, concentration corresponding to 50% growth inhibition, read-out: cytotoxicity (GI50) melanoma UACC-62
Protocol: as §1

[6] = test system: SN12C; test: NCI screen antiproliferative activity, renal SN12C; type: cell-based; conditions: Homo sapiens, concentration corresponding to 50% growth inhibition, read-out: cytotoxicity (GI50) renal SN12C
Protocol: as §1

[7] = test system: SF-539; test: NCI screen antiproliferative activity, CNS SF-539; type: cell-based; conditions: Homo sapiens, concentration corresponding to 50% growth inhibition, read-out: cytotoxicity (GI50) CNS SF-539
Protocol: as §1

[8] = test system: DU-145; test: NCI screen antiproliferative activity, prostate DU-145; type: cell-based; conditions: Homo sapiens, concentration corresponding to 50% growth inhibition, read-out: cytotoxicity (GI50) prostate DU-145
Protocol: as §1

[9] = test system: HOP-62; test: NCI screen antiproliferative activity, lung HOP-62; type: cell-based; conditions: Homo sapiens, concentration corresponding to 50% growth inhibition, read-out: cytotoxicity (GI50) lung HOP-62
Protocol: as §1

[10] = test system: HCT-116; test: NCI screen antiproliferative activity, colon HCT-116; type: cell-based; conditions: Homo sapiens, concentration corresponding to 50% growth inhibition, read-out: cytotoxicity (GI50) colon HCT-116
Protocol: as §1

Structure (SMILES) | GI50 ([1]; Homo sapiens) [µM] | cytotoxicity compared with other compounds [1] | top1 inhibitory activity compared with other compounds [2] | Top 1 Cleavage [2] | melting point | GI50 ([3]; Homo sapiens) [µM] | GI50 [4] [µM] | GI50 [5] [µM] | GI50 [6] [µM] | GI50 [7] [µM] | GI50 [8] [µM] | GI50 [9] [µM] | GI50 [10] [µM] | GI50 [3] [µM] | GI50 ([1]; average GI50 of all approximately 55 cell lines, values outside 10^-8 to 10^-4 molar taken as the limits) | pattern of top1-mediated DNA cleavage sites [2]
COc1cc2c3c(n(C)c(=O)c2cc1OC)-c1cc2c(cc1C3=CCCCCCBr)OCO2 [compound 21, 11-(6′-Bromohexylidene)-5,6-dihydro-2,3-dimethoxy-6-methyl-8,9-methylenedioxy-5-oxo-11H-indeno[1,2-c]isoquinoline] | 7.8 | slightly more cytotoxic than compounds 18-20 | higher inhibitory activity against top1 than the four-carbon alkenyl halides 19 and 24 | + | 182 to 185 °C |  |  |  |  |  |  |  |  |  |  | 
COc1cc2c3c(n(C)c(=O)c2cc1OC)-c1cc2c(cc1C3=CCCCCBr)OCO2 [compound 20, 11-(5′-Bromopentylidene)-5,6-dihydro-2,3-dimethoxy-6-methyl-8,9-methylenedioxy-5-oxo-11H-indeno[1,2-c]isoquinoline] | 33.1 |  | higher inhibitory activity against top1 than the four-carbon alkenyl halides 19 and 24 |  | 196 to 197 °C | > 100 | > 100 | > 100 | > 100 |  |  |  |  |  |  | 
COc1cc2c3c(n(C)c(=O)c2cc1OC)-c1cc2c(cc1C3=CCCN)OCO2 [compound 26, 11-(3′-Aminopropylidene)-5,6-dihydro-2,3-dimethoxy-6-methyl-8,9-methylenedioxy-5-oxo-11H-indeno[1,2-c]isoquinoline] | 0.34 |  | more potent as a top1 poison than compound 2 | +++ | > 180 °C (dec.) | 1.8 | 0.56 | 0.2 | 0.58 | 0.42 | 0.37 | 0.071 | 0.028 |  |  | 
COc1cc2cc3n(c(=O)c2cc1OC)Cc1cc2ccccc2nc1-3 [compound 8, 8,9-Dimethoxy-12H-5,11a-diaza-dibenzo[b,h]fluoren-11-one] | 91.2 | generally less cytotoxic than compound 2 |  | + |  | > 100 | > 100 | > 100 | > 100 | > 100 | > 100 | > 100 | 57.3 |  |  | 
COc1cc2c3c(n(C)c(=O)c2cc1OC)-c1cc2c(cc1C3=CCCCBr)OCO2 [compound 19, 11-(4′-Bromobutylidene)-5,6-dihydro-2,3-dimethoxy-6-methyl-8,9-methylenedioxy-5-oxo-11H-indeno[1,2-c]isoquinoline] | 27.8 |  |  | 0 | 197 to 199 °C | > 100 | 58.1 | 11.4 | > 100 | 30 | 67.8 | 19.4 | 37.8 |  |  | 
COc1cc2c3c(n(C)c(=O)c2cc1OC)-c1cc2c(cc1C3=CCCCI)OCO2 [compound 24, 11-(4′-Iodobutylidene)-5,6-dihydro-2,3-dimethoxy-6-methyl-8,9-methylenedioxy-5-oxo-11H-indeno[1,2-c]isoquinoline] | 16.8 | slightly more cytotoxic than compounds 18-20 |  | 0 | 173 to 174.5 °C | 5.2 | 22.8 | 3.5 | 8.8 | 4.3 | 28.7 | 27.6 | 0.56 |  |  | 
COc1cc2c3c(n(C)c(=O)c2cc1OC)-c1cc2c(cc1C3=O)OCO2 [compound 2, reference compound] |  |  |  | ++ |  |  |  |  |  |  |  |  |  | 96 | 20.0 µM and 20 µM | 
COc1cc2c3c(n(C)c(=O)c2cc1OC)-c1cc2c(cc1C3=CCCCCl)OCO2 [compound 18, 11-(4′-Chlorobutylidene)-5,6-dihydro-2,3-dimethoxy-6-methyl-8,9-methylenedioxy-5-oxo-11H-indeno[1,2-c]isoquinoline] | 33.1 |  |  | + | 196 to 201 °C | > 100 |  |  | > 100 |  |  |  |  |  |  | 
O=c1c2ccccc2cc2n1Cc1cc3ccccc3nc1-2 [compound 13, 12H-5,11a-Diaza-dibenzo[b,h]fluoren-11-one] | 58.9 | generally less cytotoxic than compound 2 |  | ++ |  | 41.8 | 39.8 | 97.2 | > 100 | 66.7 | > 100 | 68.2 | 32.7 |  |  | better resembled that of compound 2 than that of camptothecin
